The values that follow are results of earlier work, collected in patent US12324860B2, “Methods of treating central nervous system disorders via administration of nanoparticles of an mTOR inhibitor and an albumin” (Abraxis BioScience, LLC, priority 2018, dated 2025).

The conditions of series [1]: retrospective analysis (Lorgis et al. 2012).
The conditions of series [2]: in vivo.
For series [3] the following is noted: preclinical studies.

Read-outs that look alike come from different tables or passages of the source.

As to “bevacizumab: recombinant humanized anti-VEGF antibody”, the “PFS and OS with low dose intensity (<5 mg/kg/week) versus normal dose intensity at 10 mg/kg” value in series [1] was “improved PFS and OS”. In the case of `COc1ccc(COc2cc3oc(=O)c4cc(C(C)O)ccc4c3cc2OC)cc1` (stereo not shown) [Palomid 529], the “affinity for ABCB1/ABCG2” value in the series with ABCB1/ABCG2 is “lacks affinity”. Further, the brain penetration result in series [2] is on record as “good brain penetration”. For the compound `CO[C@H]1C[C@@H]2CC[C@@H](C)[C@@](O)(O2)C(=O)C(=O)N2CCCC[C@H]2C(=O)O[C@H]([C@H](C)C[C@@H]2CC[C@@H](OCCO)[C@H](OC)C2)CC(=O)[C@H](C)/C=C(\C)[C@@H](O)[C@@H](OC)C(=O)[C@H](C)C[C@H](C)/C=C/C=C/C=C/1C` [everolimus], in series [3], the brain penetration result is reported as “poor brain penetration”.
